Structures are written as SMILES.

The subject of this test is ovariectomized rats. Put plainly: Inhibitory effect on the increase of urinary hydroxyproline excretion by ovariectomy (Test Example 1). The class given is in vivo, SD strain rats. The following applies: Rattus norvegicus, po, 336 h; ovariectomized female SD rats; test compound 10 mg/kg suspended in 0.3% Tween, orally once a day for two weeks; 24 h urine, hydroxyproline/creatinine molar ratio; versus ovariectomized control and sham-operated rats; read-out: Inhibition rate of increase of the amount of urinary hydroxyproline excretion. How it is done:
The inhibitory effect of the compounds of the present application on bone resorption was determined by their inhibitory effect on the excretion of urinary hydroxyproline which is elevated by ovariectomy of the animals tested, according to the report of Kalu et al. [Bone and Mineral., 14, 175 (1991)].
Test Example 1: Inhibitory effect on the increase of urinary hydroxyproline excretion by ovariectomy
12-weeks-old female SD strain rats (Japan Clea Co., Ltd.) were acclimated for 1 week during which they were given tap water and a standard diet (F2; Funabashi Farmas) ad libitum. The experiment was carried out using the rats weighing 270-310 g. After the animals were subjected to sham operation or bilateral ovariectomy, they were allowed free access to water passed through ion exchange resin instead of tap water, and were housed in individual cages. The test compound (10 mg/kg) was suspended in 0.3% Tween, and the obtained suspension was orally administered to the ovariectomized rats once a day for two weeks starting from the day following ovariectomy (0.5 ml/100 g body weight). 0.3% Tween was similarly administered to sham-operated rats and ovariectomized control rats. After the final administration, the rats were placed in individual metabolic cages and fasted during 24 hours, and urine was collected. The volume of the collected urine was measured and the urine was centrifuged at 3,000 rpm for 15 min at 4°C. The concentration of hydroxyproline in the supernatant was measured by the method of Ikeda et al. [Ann. Rep. Tokyo Metr. Res. Lab. P. H., 36, 277-282 (1985)] and the concentration of creatinine in the supernatant was measured with creatinine test WAKO (Wako Pure Chem.) The amount of urinary hydroxyproline excretion was expressed by the molar ratio of the amount of hydroxyproline to the amount of creatinine. The rate of inhibition on increase of the amount of urinary hydroxyproline excretion in ovariectomized rats treated with the test compound compared to that of the control group was calculated using the following equation. Inhibition rate (%) = [(P1 - P2)/(P1 - P3)] x 100 [formula] • P1 : The amount of urinary hydroxyproline excretion in ovariectomized rats treated with 0.3% Tween (µmol/mmol). • P2 : The amount of urinary hydroxyproline excretion in ovariectomized rats treated with the test compound (µmol/mmol). • P3 : The amount of urinary hydroxyproline in sham-operated rats treated with 0.3% Tween (µmol/mmol).
In the case of `CN(C)CCN(C)C(=O)c1c(C(c2ccc(O)cc2)c2ccc(O)cc2)c2ccccc2n1CCN(C)C` [Compound 22, N-(2-Dimethylaminoethyl)-N-methyl-3-[bis(4-hydroxyphenyl)methyl]-1-(2-dimethylaminoethyl)indole-2-carboxamide], the inhibition in vivo at 10 mg/kg is 100%. In the case of `CN(C)CCn1c(C(=O)NCCN2CCCCC2)c(C(c2ccc(O)cc2)c2ccc(O)cc2)c2ccccc21` [Compound 25, N-(2-Piperidinoethyl)-3-[bis(4-hydroxyphenyl)methyl]-1-(2-dimethylaminoethyl)indole-2-carboxamide], the inhibition in vivo at 10 mg/kg was 100%. As for `CN(C)CCn1c(C(=O)NCCCN2CCOCC2)c(C(c2ccc(O)cc2)c2ccc(O)cc2)c2ccccc21` [Compound 27, N-(3-Morpholinopropyl)-3-[bis(4-hydroxyphenyl)methyl]-1-(2-dimethylaminoethyl)indole-2-carboxamide], the figure is 30%; as for `CN(C)CCn1c(C(=O)NCc2cccnc2)c(C(c2ccc(O)cc2)c2ccc(O)cc2)c2ccccc21` [Compound 29, N-(3-Pyridylmethyl)-3-[bis(4-hydroxyphenyl)methyl]-1-(2-dimethylaminoethyl)indole-2-carboxamide], 30%; as for `CN(C)CCn1c(C(=O)NCc2ccncc2)c(C(c2ccc(O)cc2)c2ccc(O)cc2)c2ccccc21` [Compound 30, N-(4-Pyridylmethyl)-3-[bis(4-hydroxyphenyl)methyl]-1-(2-dimethylaminoethyl)indole-2-carboxamide], 100%. For `CN(C)CCn1c(C(=O)NCCc2ccncc2)c(C(c2ccc(O)cc2)c2ccc(O)cc2)c2ccccc21` [Compound 32, N-[2-(4-Pyridyl)ethyl]-3-[bis(4-hydroxyphenyl)methyl]-1-(2-dimethylaminoethyl)indole-2-carboxamide], the inhibition in vivo at 10 mg/kg is 100%. Regarding `CCN1CCCC1CNC(=O)c1c(C(c2ccc(O)cc2)c2ccc(O)cc2)c2ccccc2n1CCN(C)C` (stereo not drawn) [Compound 33, N-[(1-Ethyl-2-pyrrolidinyl)methyl]-3-[bis(4-hydroxyphenyl)methyl]-1-(2-dimethylaminoethyl)indole-2-carboxamide], the inhibition in vivo at 10 mg/kg was 100%.

As to `CN(C)CCn1c(C(=O)NCCC2CCCN2C)c(C(c2ccc(O)cc2)c2ccc(O)cc2)c2ccccc21` (stereo not drawn) [Compound 34, N-[2-(1-Methyl-2-pyrrolidinyl)ethyl]-3-[bis(4-hydroxyphenyl)methyl]-1-(2-dimethylaminoethyl)indole-2-carboxamide], the inhibition in vivo at 10 mg/kg was found to be 100%.

On to `CN(C)CCn1c(C(=O)NCC2CCCO2)c(C(c2ccc(O)cc2)c2ccc(O)cc2)c2ccccc21` (stereo not drawn) [Compound 37, N-(2-Tetrahydrofuranylmethyl)-3-[bis(4-hydroxyphenyl)methyl]-1-(2-dimethylaminoethyl)indole-2-carboxamide], for which the inhibition in vivo at 10 mg/kg worked out at 100%.
